In assay [1] the target is HCV NS3/4A protease complex (Hepatitis C virus genotype 1a, UniProt P27958, C1454S/C1711G). The assay is described as follows: Recombinant HCV NS3/4A protease complex FRET peptide assay (strain not stated). The conditions noted are these: IC50, NS3/4A protease enzyme assay, strain not stated; activity ranges. Type of assay: biochemical.
Assay [2] relates to HCV replicon in Huh7 cells. Description: HCV replicon cell-based assay. Also noted: species or system HCV strain 1B. The conditions noted are these: Hepatitis C virus, Huh-7, 96 h; HCV replicon, Huh7 cells, 4 days; activity ranges; read-out: EC50. An excerpt: An HCV replicon whole cell system was established as described by Lohmann V, Korner F, Koch J, Herian U, Theilmann L, Bartenschlager R., Science 285(5424):110-3 (1999). This system enabled us to evaluate the effects of our HCV Protease compounds on HCV RNA replication. Briefly, using the HCV strain 1B sequence described in the Lohmann paper (Assession number:AJ238799), an HCV cDNA was generated encoding the 5′ internal ribosome entry site (IRES), the neo gene, the EMCV-IRES and the HCV nonstructural proteins, NS3-NS5B, and 3′ NTR. […] Resulting cell lines were characterized for positive and negative RNA production and protein production over time.
Huh7 cells, constitutively expressing the HCV replicon, were grown in DMEM containing 10% FCS (Fetal calf serum) and 1 mg/ml G418 (Gibco-BRL). Cells were seeded the night before (1.5×10^4 cells/well) in 96-well tissue-culture sterile plates. Compound was prepared in DMEM containing 4% FCS, 1:100 Penicillin/Streptomysin, 1:100 L-glutamine and 0.5% DMSO. Compound/DMSO mixes were added to the cells and incubated for 4 days at 37° C. After 4 days, cells were either lyzed using the Rneasy kit (Qiagen) to isolate and purify RNA for an EC50 determination or assessed for cytotoxicity using alamar Blue (Trek Diagnotstic Systems) for a CC50 reading. For an EC50 determination, purified total RNA was normalized using RiboGreen (Jones L J, Yue S T, Cheung C Y, Singer V L, Anal. Chem., 265(2):368-74 (1998)) and relative quantitation of HCV RNA expression assessed using the Taqmann procedure (Kolykhalov A A, Mihalik K, Feinstone S M, Rice C M, Journal of Virology 74, 2046-2051 (2000)). Briefly, RNA made to a volume of 5 μl (≦1 ng) was added to a 20 μl Ready-Mix containing the following: 5×EZ rTth buffer, 3 mM MnOAc2, 3 mM dNTPs, 200 nM forward primer, 600 nM reverse primer, 100 nM probe and rTth polymerase. Samples containing known concentrations of HCV RNA transcript were run as standards. Using the following cycling protocol (95° C., 1 min; 60° C., 0.5 min; 95° C., 2 min; 40 cycles of 94° C., 0.5 min, 60° C.; 1 min; and completing with 60° C., 10 min), HCV RNA expression was quantitated as described in the Perkin Elmer manual. The toxicity of compound (CC50) was determined by adding 1/10th volume of alamar Blue to the media incubating the cells. After 4 hr, the fluorescence signal from each well was read, with an excitation wavelength at 530 nm and an emission wavelength of 580 nm, using the Cytofluor Series 4000 (Perspective Biosystems).
A general note: A replicon is a self-replicating genome or part of one, used to study replication in cells.

Each structure is given as a SMILES string.

As a reminder, the IC50 is the concentration that inhibits the measured activity by half. By EC50 is commonly meant the midpoint of the concentration-response curve.

HCV NS3/4A protease complex, sequence (P27958 1027-1711, stated change not applied): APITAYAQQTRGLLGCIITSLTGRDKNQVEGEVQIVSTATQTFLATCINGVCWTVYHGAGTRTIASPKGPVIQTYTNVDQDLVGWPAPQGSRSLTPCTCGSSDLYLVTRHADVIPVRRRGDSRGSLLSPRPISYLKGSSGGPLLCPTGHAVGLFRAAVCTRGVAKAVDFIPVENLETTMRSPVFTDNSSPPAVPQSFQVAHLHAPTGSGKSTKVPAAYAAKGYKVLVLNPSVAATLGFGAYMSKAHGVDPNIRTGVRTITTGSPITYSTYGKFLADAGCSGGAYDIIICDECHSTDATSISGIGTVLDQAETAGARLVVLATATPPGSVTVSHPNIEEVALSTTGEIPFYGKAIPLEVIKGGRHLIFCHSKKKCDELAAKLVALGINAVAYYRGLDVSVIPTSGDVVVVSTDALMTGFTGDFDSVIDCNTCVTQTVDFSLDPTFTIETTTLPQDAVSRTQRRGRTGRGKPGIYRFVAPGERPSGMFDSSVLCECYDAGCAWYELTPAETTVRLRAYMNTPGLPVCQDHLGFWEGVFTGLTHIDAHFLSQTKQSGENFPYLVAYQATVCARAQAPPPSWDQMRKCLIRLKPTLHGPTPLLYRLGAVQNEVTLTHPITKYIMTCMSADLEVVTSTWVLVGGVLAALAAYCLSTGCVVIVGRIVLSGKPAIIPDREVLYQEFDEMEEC
HCV NS3/4A protease complex, sequence (P27958 1027-1711, stated change not applied): as above

Regarding `CCC1C[C@]1(NC(=O)[C@@H]1C[C@@H](Oc2cc(-c3ccccc3)nc3cc(OC)ccc23)CN1C(=O)[C@@H](NC(=O)OC(C)(C)C)C(C)(C)C)C(=O)NS(=O)(=O)C1CC1` (stereo in doubt) [Compound 2, {1-[2-(1-cyclopropanesulfonylamino-carbonyl-2-ethylcyclopropylcarbamoyl)-4-(7-methoxy-2-phenyl-quinolin-4-yloxy)-pyrrolidine-1-carbonyl]-2,2-dimethylpropyl}carbamic acid tert-butyl ester], the IC50 in assay [1] was less than 50 nM. Moreover, the EC50 in assay [2] was less than 50 nM.

For the compound `C=CC1C[C@]1(NC(=O)[C@@H]1C[C@@H](Oc2cc(-c3ccccc3)nc3cc(OC)ccc23)CN1C(=O)[C@@H](NC(=O)NC(C)(C)C)C(C)(C)C)C(=O)NS(=O)(=O)C1CC1` (stereo in doubt) [Compound 19, 1-[2-(3-tert-Butylureido)-3,3-dimethylbutyryl]-4-(7-methoxy-2-phenylquinolin-4-yloxy)pyrrolidine-2-carboxylic acid (1-cyclopropanesulfonylaminocarbonyl-2-vinylcyclopropyl)amide], in assay [1], the IC50 was less than 50 nM. In addition, the EC50 in assay [2] was less than 50 nM.

For `C=CC1C[C@]1(NC(=O)[C@@H]1C[C@@H](Oc2cc(-c3ccccc3)nc3cc(OC)ccc23)CN1C(=O)C(NC(=O)OC(C)(C)C)C(C)(C)C)C(=O)NS(=O)(=O)c1ccccc1I` (some centres unmarked) [Compound 56], in assay [1], the IC50 was less than 50 nM. Moreover, the EC50 in assay [2] was less than 500 nM.

As to `CCC1C[C@]1(NC(=O)[C@@H]1C[C@@H](Oc2cc(-c3ccccc3)nc3cc(OC)ccc23)CN1C(=O)[C@@H](NC(=O)CC1CC1)C(C)C)C(=O)NS(=O)(=O)C1CC1` (stereo in doubt) [Compound 5, 1-[2-(2-cyclopropylacetylamino)-3-methylbutyryl]-4-(7-methoxy-2-phenylquinolin-4-yloxy)pyrrolidine-2-carboxylic acid (1-cyclopropanesulfonylaminocarbonyl-2-ethylcyclopropyl)amide], the IC50 in assay [1] is less than 50 nM. Also, the EC50 in assay [2] was less than 50 nM.

Regarding `C=CC1C[C@]1(NC(=O)[C@@H]1C[C@@H](Oc2cc(-c3ccccc3)nc3cc(OC)ccc23)CN1C(=O)[C@@H](NC(=O)OC(C)(C)C)C(C)(C)C)C(=O)NS(=O)(=O)C(C)C` (some centres unmarked) [Compound 27], the IC50 in assay [1] was less than 50 nM. Further, in assay [2], the EC50 is less than 500 nM.

`C=CC1CC1(NC(=O)[C@@H]1C[C@@H](Oc2cc(-c3ccccc3)nc3cc(OC)ccc23)CN1C(=O)[C@@H](NC(=O)OC(C)(C)C)C(C)C)C(=O)NS(C)(=O)=O` (some centres unmarked) [Compound 89]: the IC50 in assay [1] was less than 500 nM. Besides, the EC50 in assay [2] is less than 5000 nM.

Take `C=CCC[C@](C)(NC(=O)[C@@H]1C[C@@H](Oc2cc(-c3ccccc3)nc3cc(OC)ccc23)CN1C(=O)C(NC(=O)OC(C)(C)C)C(C)(C)C)C(=O)NS(=O)(=O)c1ccc(C#N)cc1` (some centres unmarked) [Compound 41]: in assay [1], the IC50 was less than 50 nM. In addition, the EC50 in assay [2] was less than 500 nM.

`C=CC1C[C@]1(NC(=O)[C@@H]1C[C@@H](Oc2cc(-c3ccccc3)nc3cc(OC)ccc23)CN1C(=O)[C@@H](NC(=O)OC(C)(C)C)C(C)C)C(=O)NS(=O)(=O)C1CCC1` (some centres unmarked) [Compound 71]: the IC50 in assay [1] was less than 50 nM. Further, the EC50 in assay [2] was less than 50 nM.

As to `COc1ccc2c(OC3C[C@@H](C(=O)NC4(C(=O)NS(=O)(=O)C5CC5)CC45CCC5)N(C(=O)[C@@H](NC(=O)OC(C)(C)C)C(C)(C)C)C3)cc(-c3ccccc3)nc2c1` (some centres unmarked) [Compound 136, {1-[2-(1-Cyclopropanesulfonylaminocarbonyl-spiro[2.3]hex-1-ylcarbamoyl)-4-(7-methoxy-2-phenyl-quinolin-4-yloxy)-pyrrolidine-1-carbonyl]-2,2-dimethyl-propyl}-carbamic acid tert-butyl ester], the IC50 in assay [1] is less than 500 nM. Moreover, the EC50 in assay [2] is less than 5000 nM.

Turning to `C=CCOC(=O)N[C@H](C(=O)N1C[C@H](Oc2cc(-c3ccccc3)nc3cc(OC)ccc23)CC1C(=O)N[C@]1(C(=O)NS(=O)(=O)C2CC2)C[C@H]1C=C)C(C)(C)C` (stereo partly drawn) [Compound 126, {1S-[2S-(1R-cyclopropanesulfonylaminocarbonyl-2S-vinyl-cyclopropylcarbamoyl)-4R-(7-methoxy-2-phenyl-quinolin-4-yloxy)-pyrrolidine-1-carbonyl]-2,2-dimethyl-propyl}-carbamic acid allyl ester], the IC50 in assay [1] was less than 50 nM. The EC50 in assay [2] was less than 50 nM.

Turning to `C=CC1C[C@]1(NC(=O)[C@@H]1C[C@@H](Oc2cc(-c3ccccc3)nc3cc(OC)ccc23)CN1C(=O)[C@@H](NC(=O)OC(C)(C)C)C1CCCC1)C(=O)NS(=O)(=O)C1CCC1` (some centres unmarked) [Compound 72], the IC50 in assay [1] is less than 500 nM. Further, in assay [2], the EC50 was less than 500 nM.

With `C=C[C@@H]1C[C@]1(NC(=O)C1CC(Oc2cc(-c3ccccc3)nc3cc(OC)ccc23)CN1C(=O)[C@@H](NS(C)(=O)=O)C(C)(C)C)C(=O)NS(=O)(=O)C1CC1` (stereo partly drawn) [Compound 117, 1-(2S-methanesulfonylamino-3,3-dimethyl-butyryl)-4R-(7-methoxy-2-phenyl-quinolin-4-yloxy)-pyrrolidine-2S-carboxylic acid (1R-cyclopropanesulfonylamino-carbonyl-2S-vinyl-cyclopropyl)-amide], the 50% inhibitory concentration (IC50) in assay [1] is less than 50 nM. In addition, the EC50 in assay [2] is less than 500 nM.

`C=CC1C[C@]1(NC(=O)[C@@H]1C[C@@H](Oc2cc(-c3ccccc3)nc3cc(OC)ccc23)CN1C(=O)[C@@H](NC(=O)OC(C)(C)C)C(C)CC)C(=O)NS(=O)(=O)C1CC1` (some centres unmarked) [Compound 24]: in assay [1], the IC50 was less than 500 nM. The EC50 in assay [2] was less than 500 nM.

`C=CC1C[C@]1(NC(=O)[C@@H]1C[C@@H](Oc2cc(-c3ccccc3)nc3cc(OC)ccc23)CN1C(=O)[C@@H](NC(=O)OC(C)(C)C)C(C)(C)C)C(=O)NS(=O)(=O)CC(C)(C)C` (stereo in doubt) [Compound 14, {1-[2-[1-(2,2-Dimethylpropane-1-sulfonylaminocarbonyl)-2-vinylcyclopropylcarbamoyl]-4-(7-methoxy-2-phenylquinolin-4-yloxy)pyrrolidine-1-carbonyl]-2,2-dimethylpropyl}-carbamic acid tert-butyl ester]: the IC50 in assay [1] is less than 500 nM. Further, in assay [2], the EC50 is less than 500 nM.

With `CCC1C[C@]1(NC(=O)[C@@H]1C[C@@H](Oc2cc(-c3ccccc3)nc3cc(OC)ccc23)CN1C(=O)[C@@H](NC(=O)OC1CCCC1)C(C)C)C(=O)NS(=O)(=O)C1CC1` (some centres unmarked) [Compound 6], the IC50 in assay [1] was less than 50 nM. Besides, the EC50 in assay [2] was less than 50 nM.

Regarding `COc1ccc2c(OC3C[C@@H](C(=O)NC4(C(=O)NS(=O)(=O)C5CC5)CC45CC5)N(C(=O)[C@@H](NC(=O)OC(C)(C)C)C(C)(C)C)C3)cc(-c3ccccc3)nc2c1` (some centres unmarked) [Compound 140, {1-[2-(1-Cyclopropanesulfonylaminocarbonyl-spiro[2.2]pentane-1-ylcarbamoyl)-4-(7-methoxy-2-phenyl-quinolin-4-yloxy)-pyrrolidine-1-carbonyl]-2,2-dimethyl-propyl}-carbamic acid tert-butyl ester], in assay [1], the IC50 was less than 50 nM. Further, the EC50 in assay [2] is less than 500 nM.

Values taken from patent US6872805B2 (Bristol-Myers Squibb Company, priority 2000, dated 2005).
